Measurements from PMC11921344, “Antimicrobial peptide DiPGLa-H exhibits the most outstanding anti-infective activity among the PGLa variants based on a systematic comparison” (Applied and Environmental Microbiology, 2025).
Read-outs that look alike come from different tables or passages of the source. Where no end group is shown, it is not given here.

What was measured:
[1] = tested on: E. coli K88; assay type: cell-based, Escherichia coli
Experimental: (§1) The antibacterial activity was evaluated using a standard MIC and MBC assay according to the National Committee for Clinical Laboratory Standards (NCCLS). MIC, MBC assay, and time-kill curves for the optimal peptide are provided in the Supplementary Materials.
Antimicrobial Activity Assays. The antibacterial activity of the peptides was determined using a method designed from the National Committee for Clinical Laboratory Standards (NCCLS) in the United States. All the strains used in the experiment are preserved in the laboratory. Briefly, log phase bacterial cells were diluted in MHB to a final concentration of 0.5-1x10^5 CFU/mL. Subsequently, 50μL of different concentrations of polypeptides were incubated with 50 μL of bacterial solution in sterile 96-well plates. In the minimum inhibitory concentration (MIC) assay, the plate was incubated at 37°C for 24 h, and the minimum inhibitory concentration (MIC) was determined by the absorbance at 492 nm of the microplate reader, and the minimum inhibitory concentration (MIC) inhibited 95% of bacteria grow. Determination of minimum bactericidal concentration: the plate was incubated at 37°C for 4 hours, 50 μL of the mixture was taken out of each well, diluted with an appropriate amount of PBS, smeared on the agar plate, and cultured overnight. Colonies were counted and the initial CFU/well was retrospectively calculated the following day. […]

[2] = tested on: E. coli ATCC25922; assay type: cell-based, Escherichia coli; conditions: for MBC E. coli ATCC25922: ATCC25922, 4 h; for MIC E. coli ATCC25922: ATCC25922, 24 h
Experimental: as §1
Antimicrobial Activity Assays. The antibacterial activity of the peptides was determined using a method designed from the National Committee for Clinical Laboratory Standards (NCCLS) in the United States. All the strains used in the experiment are preserved in the laboratory. Briefly, log phase bacterial cells were diluted in MHB to a final concentration of 0.5-1x10^5 CFU/mL. Subsequently, 50μL of different concentrations of polypeptides were incubated with 50 μL of bacterial solution in sterile 96-well plates. In the minimum inhibitory concentration (MIC) assay, […], and the minimum inhibitory concentration (MIC) was determined by the absorbance at 492 nm of the microplate reader, and the minimum inhibitory concentration (MIC) inhibited 95% of bacteria grow. Determination of minimum bactericidal concentration: the plate was incubated at 37°C for 4 hours, 50 μL of the mixture was taken out of each well, diluted with an appropriate amount of PBS, smeared on the agar plate, and cultured overnight. Colonies were counted and the initial CFU/well was retrospectively calculated the following day. The lowest concentration of peptide that kills 99.9% of bacterial cells is the minimum bactericidal concentration (µM), Each test was replicated at least 3 times.

[3] = tested on: A. baumannii ATCC19606; assay type: cell-based, Acinetobacter baumannii; conditions: for MBC A. baumannii ATCC19606: ATCC19606, 4 h; for MIC A. baumannii ATCC19606: ATCC19606, 24 h
Experimental: as §1
(§2) Antimicrobial Activity Assays. The antibacterial activity of the peptides was determined using a method designed from the National Committee for Clinical Laboratory Standards (NCCLS) in the United States. All the strains used in the experiment are preserved in the laboratory. Briefly, log phase bacterial cells were diluted in MHB to a final concentration of 0.5-1x10^5 CFU/mL. Subsequently, 50μL of different concentrations of polypeptides were incubated with 50 μL of bacterial solution in sterile 96-well plates. In the minimum inhibitory concentration (MIC) assay, the plate was incubated at 37°C for 24 h, and the minimum inhibitory concentration (MIC) was determined by the absorbance at 492 nm of the microplate reader, and the minimum inhibitory concentration (MIC) inhibited 95% of bacteria grow. Determination of minimum bactericidal concentration: the plate was incubated at 37°C for 4 hours, 50 μL of the mixture was taken out of each well, diluted with an appropriate amount of PBS, smeared on the agar plate, and cultured overnight. Colonies were counted and the initial CFU/well was retrospectively calculated the following day. The lowest concentration of peptide that kills 99.9% of bacterial cells is the minimum bactericidal concentration (µM), Each test was replicated at least 3 times.

[4] = tested on: P. aeruginosa ATCC27853; assay type: cell-based, Pseudomonas aeruginosa; conditions: for MBC P. aeruginosa ATCC27853: ATCC27853, 4 h; for MIC P. aeruginosa ATCC27853: ATCC27853, 24 h
Experimental: as §1, §2

[5] = tested on: S. aureus ATCC29213; assay type: cell-based, Staphylococcus aureus; conditions: for MBC S. aureus ATCC29213: ATCC29213, 4 h; for MIC S. aureus ATCC29213: ATCC29213, 24 h
Experimental: as §1, §2

[6] = tested on: S. aureus Mu50; assay type: cell-based, Staphylococcus aureus MRSA; conditions: for MBC S. aureus Mu50: Mu50, 4 h; for MIC S. aureus Mu50: Mu50, 24 h
Experimental: as §1, §2

[7] = tested on: Gram-negative bacteria; test: Geometric mean MIC and therapeutic index, Gram-negative; assay type: cell-based; conditions: geometric mean of the peptide MICs against Gram-negative strains
Experimental: as §1, §2

[8] = tested on: Gram-positive bacteria; test: Geometric mean MIC and therapeutic index, Gram-positive; assay type: cell-based; conditions: geometric mean of the peptide MICs against Gram-positive strains
Experimental: as §1, §2

[9] = tested on: all tested bacteria; test: Geometric mean MIC and therapeutic index, all strains; assay type: cell-based; conditions: for GMMIC All: geometric mean of the peptide MICs against all strains; for reduced antibacterial efficacy compared with DiPGLa-H: from MICs of Table 2
Experimental: as §1, §2

[10] = tested on: E. coli ATCC 25922; conditions: cited from earlier work
Experimental: (§3) PGLa, an amphibian 21-residue cationic AMP, with a net charge of +4, was found in the skin of the toad Xenopus laevis ([6]). The minimum inhibitory concentration (MIC) of PGLa against Escherichia coli 25922 and S. aureus 25923 were 10–50 μg/mL and 50–100 μg/mL, respectively ([6]). […] The rep ...

[11] = tested on: S. aureus ATCC 25923; conditions: cited from earlier work
Experimental: as §3

[12] = tested on: E. coli; conditions: cited from earlier work
Experimental: as §3

[13] = tested on: S. aureus; conditions: cited from earlier work
Experimental: as §3

[14] = tested on: Acinetobacter nosocomial Ab113; conditions: cited from earlier work
Source text: (§4) To date, there is a lack of systematic comparative study on the bacteriostatic activity and biosafety of PGLa and its variants, which precludes the determination of the variant with the highest potential for application. It has been more than 30 years since the discovery of PGLa in 1983 to the recent discovery of new PGLa-derived peptides.

[15] = tested on: Helicobacter pylori; conditions: cited from earlier work
Source text: as §4

[16] = tested on: E. coli K88 outer membrane; test: Outer membrane integrity assay (NPN uptake); assay type: cell-based, Escherichia coli; conditions: 4 µM peptide; relative to 10 µg/mL polymyxin B = 100%
Experimental: (§5) The outer and inner membrane integrity of bacterial cells treated with peptides was assessed using NPN and PI staining, respectively. Full details are provided in the Supplementary Materials.
Membrane permeabilization. Outer membrane integrity assay. The fluorescent probe NPN (Sigma-Aldrich, catalog no. 104043, ≥98%) was used to assess the outer membrane integrity of DiPGLa-H or mucin-treated E. coli K88. Briefly, log-medium E. coli K88 cells (OD600 = 0.2) were incubated with NPN (10 μM) in 5 mM HEPES buffer (pH 7.4, containing 5 mM glucose) for 30 min, and background fluorescence was recorded for subtraction. (excitation λ = 350 nm, emission λ = 420 nm) using a microplate reader (Varioskan Flash; Thermo, America). Subsequently, 100 μL of cell suspension was mixed with an equal volume of peptide solutions ranging in concentration from 4 to 64 μM in a sterile 96-well black plate. Fluorescence was recorded over time until no further increase in fluorescence was detected. Each test was performed independently, in duplicate, with three biological replicates, and results were converted to percent NPN uptake using the equation. NPN uptake (%) = (Fobs – Fbuffer)/ (Fpositive – Fbuffer) ×100%.
where Fobs is the observed fluorescence at a given peptide concentration, Fbuffer is the fluorescence of the buffer, and Fpositive is the fluorescence of NPN with microbial cells upon addition of 10 μg/mL polymyxin B (Sigma), which was used as a positive control because of its strong outer membrane-permeabilizing property. Untreated cell suspension served as the negative control.

[17] = tested on: E. coli K88 inner membrane; test: Inner membrane integrity assay (PI); assay type: cell-based, Escherichia coli; conditions: 4 µM, 16 µM and 64 µM peptide
Experimental: as §5
Inner membrane integrity assay. E. coli K88 cells were washed and resuspended in 0.01 mol l−1 of PBS (pH 7.4) to obtain an OD600 of 0.5, followed by the addition of 10 nmol l−1 of PI (Thermo Fisher Scientific, catalogue no. P1304MP) in the presence of […]. After incubation for 30 min, fluorescence was measured with the excitation wavelength at 535 nm and emission wavelength at 615 nm.

[18] = tested on: MRSA; conditions: cited from earlier work
Source text: as §4

[19] = tested on: Pseudomonas aeruginosa; conditions: cited from earlier work
Source text: as §4

[20] = first of two independent studies
[21] = second of two independent studies

| Substance | MBC E. coli ATCC25922 [2] [µM] | MIC E. coli ATCC25922 [2] [µM] | MBC A. baumannii ATCC19606 [3] [µM] | MIC A. baumannii ATCC19606 [3] [µM] | MBC P. aeruginosa ATCC27853 [4] [µM] | MIC P. aeruginosa ATCC27853 [4] [µM] | MBC S. aureus ATCC29213 [5] [µM] | MIC S. aureus ATCC29213 [5] [µM] | MBC S. aureus Mu50 [6] | MIC S. aureus Mu50 [6] | GMMIC Gram-negative [7] [µM] | GMMIC Gram-positive [8] [µM] | GMMIC All [9] [µM] | reduced antibacterial efficacy compared with DiPGLa-H [9] | also measured |
| --- | --- | --- | --- | --- | --- | --- | --- | --- | --- | --- | --- | --- | --- | --- | --- |
| GMASKAGAIAGKIAKVALKAL-NH2 (C-terminus assumed) [PGLa] | > 64 | > 64 | 16 | 16 | 64 | 64 | 64 | 64 | >64 (>64) µM | >64 (>64) µM | 38.05 | 64 | 45.25 |  | MIC E. coli K88 ([1]; lowest concentration inhibiting 95% of growth, MHB, 0.5-1x10^5 CFU/mL, 37°C 24 h, absorbance 492 nm, three independent experiments): 32 µM; MBC E. coli K88 ([1]; lowest concentration killing >99.9% of cells, 37°C 4 h, plating, colony count, three independent trials): 64 µM; MIC E. coli 25922 [10]: 10 to 50 µg/mL; MIC S. aureus 25923 [11]: 50 to 100 µg/mL |
| GMASKAGSVLGKVAKVALKAAL-NH2 (C-terminus assumed) [PGLa-AM1] | > 64 | > 64 | 32 | 32 | > 64 | 64 | > 64 | > 64 | >64 (>64) µM | >64 (>64) µM | 53.82 | 64 | 57.02 |  | MIC E. coli [12]: 12.5 µM; MIC S. aureus [13]: 25 µM; MIC Acinetobacter nosocomial Ab113 [14]: 128 µg/mL; MIC Helicobacter pylori [15]: 1 µg/mL |
| KIAKGALKALKIAKVALKAL-NH2 (C-terminus assumed) [kiadin-2] | 16 | 8 | 4 | 4 | 8 | 4 | 32 | 32 | 32 (32) µM | 32 (32) µM | 4.76 | 32 | 8.98 | 2–8 times |  |
| KIAKVALKAL-NH2 (C-terminus assumed) [PGLa-H] | > 128 | > 128 | > 128 | > 128 | > 128 | > 128 | > 128 | > 128 | >128 (>128) µM | >128 (>128) µM | 128 | 128 | 128 |  | outer membrane permeability (NPN uptake) [16]: failed to exhibit any discernible outer membrane permeability; PI-DNA fluorescence intensity [17]: relatively constant PI-DNA fluorescence intensity; MIC E. coli ATCC25922 [10]: 23.6 µg/mL; MIC S. aureus ATCC 25923 [11]: 8.7 µg/mL |
| KIAKVALKALKIAKGALKAL-NH2 (C-terminus assumed) [kiadin-1] | 64 | 32 | 4 | 4 | 16 | 8 | 16 | 16 | 32 (32) µM | 32 (32) µM | 11.31 | 22.63 | 14.25 | 2–8 times | MIC MRSA [18, 20]: 3 µM; MIC MRSA [18, 21]: 16 µg/mL; MIC Pseudomonas aeruginosa ATCC 25922 [19, 20]: 6 µM; MIC Pseudomonas aeruginosa ATCC 25922 [19, 21]: > 32 µg/mL |
